Experimental data published in patent US20250243208A1, “BICYCLIC HETEROCYCLES AS MRGPRX2 ANTAGONISTS” (Incyte Corporation, priority 2024, published 2025).

Legend:
MRGPRX2 [1] = target: T1, MRGPRX2 (Homo sapiens, UniProt Q96LB1); assay: MRGPRX2 β-Arrestin recruitment assay (PathHunter CHO-K1); assay type: cell-based; set-up: host or cells: PathHunter CHO-K1; conditions: PathHunter CHO-K1 cells, agonist Cortistatin 14 0.25 μM
T1 sequence (Q96LB1 1-330): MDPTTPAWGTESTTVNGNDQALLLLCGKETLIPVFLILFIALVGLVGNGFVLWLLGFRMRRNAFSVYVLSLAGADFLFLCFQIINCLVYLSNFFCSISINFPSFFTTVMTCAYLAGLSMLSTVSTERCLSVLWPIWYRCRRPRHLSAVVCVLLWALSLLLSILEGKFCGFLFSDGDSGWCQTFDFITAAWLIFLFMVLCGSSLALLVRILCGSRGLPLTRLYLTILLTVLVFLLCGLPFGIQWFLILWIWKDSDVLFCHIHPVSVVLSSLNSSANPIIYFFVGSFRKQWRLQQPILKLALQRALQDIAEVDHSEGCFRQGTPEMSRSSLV
Excerpt: Example C: MRGPRX2 β-Arrestin Assay
This assay measures compound inhibition of β-Arrestin recruitment, which is part of the G protein-independent pathway that results from the ligand-activated GPCR phosphorylation by specific GPCR kinases. The PathHunter CHO-K1 MRPGRX2 B-Arrestin Cell line stably expressing ProLink tagged MRGPRX2 and Enzyme Acceptor Tagged B-Arrestin was purchased from Eurofins DiscoverX, (Fremont, CA).
The cells were maintained in culture medium from the Europhins DiscoverX Cell Culture Kit-107 which includes FBS, hygromycin B and G418. For the assay, the cells were harvested and were resuspended with Cell Plating Reagent 2 (Eurofins DiscoverX). Cells were added 10000 cells in 25 μL/well to a 384-well black cell culture plate (Greiner VWR, Radnor, PA) which contained 125 nL/well of compound at a selected serially diluted concentration range or DMSO. The plate was incubated at 37° C. with 5% CO2 for 1 h. 2 μL/well of agonist Cortistatin 14 was diluted in Protein Dilution Buffer, (Eurofins DiscoverX) for a final concentration of 0.25 μM, was added and the plate was incubated at 37° C. with 5% CO2 for 90 min. 14 μL/well of Detection Reagent Mix (PathHunter Detection Kit, Eurofins DiscoverX) was added to the plates and further incubated for 1 h in the dark. Plates were read on the PHERAstar microplate reader (BMG Labtech Cary, NC) measuring luminescence 0.1 to 1 s per well. Data was normalized using DMSO only wells and wells with high concentration of reference antagonist as controls. Compound IC50 curves were globally fitted with 3- or 4-parameter Hill equation in a Genedata Screener (Genedata Basel, Switzerland).

MRGPRX2 [2] = target: T1, MRGPRX2; assay: MRGPRX2 IP1 HTRF assay; assay type: cell-based; set-up: host or cells: CHO-K1; conditions: CHO-K1 cells, agonist Cortistatin 14 1 μM, IP1 accumulation
Excerpt: Example B: MRGPRX2 IP1 HTRF Assay
This assay measures compound inhibition of myo-Inositol 1 phosphate (IP1) accumulation in CHO-K1 cells. Chinese hamster ovary (CHO-K1) cells stably expressing human MRGPRX2 were purchased from GenScript (Piscataway, NJ).
For the HTRF IP1 determination, an IP-One GqKit (Perkin Elmer Cisbio, Waltham, MA), which includes all reagents and buffers in this protocol, was used. The cells were maintained in culture medium (Ham's F-12K) containing 10% (v/v) FBS, and 200 μg/mL Zeocin. For the assay, the cells were harvested and resuspended in culture medium with 2% FBS and without Zeocin, then were passed through a 40 μm filter. Cells were added at 20000 cells in a 5 μL/well to a 384-well white small volume cell culture plate (Greiner VWR, Radnor, PA) which contained 50 nL/well of test compound serially diluted at a selected concentration range in DMSO. 5 μL/well of prepared 2× Stimulation Buffer2 was then added to plates and was incubated at 37° C. with 5% CO2 for 1 h. 5 μL/well of agonist Cortistatin 14 (Bio-TechneR&D Systems, Minneapolis, MN) in 1× Stimulation Buffer 2, for a 1 μM final concentration, was then added to plates and incubated at 37° C. with 5% CO2 for 1 h. 6 μL/well of 1:20 diluted Detection Reagent Mix (d2 and Cryptate) was added to the plates and incubated for 1 h in the dark. Plates were read on the PHERAstar microplate reader (BMG Labtech Cary, NC) to determine the HTRF ratio of the acceptor and donor emission signals. The IP1 concentrations were calculated from a standard curve following the IP-One GQ kit instructions. Wells with DMSO only and wells with high concentration of reference antagonist were used as controls for normalization. Compound IC50 curves were globally fitted with 3- or 4-parameter Hill equation in a Genedata Screener (Genedata Basel, Switzerland).

MRGPRX2 [3] = target: T1, MRGPRX2; assay: potency comparison of separated isomers (assay not stated); conditions: compared with the other separated diastereomer/enantiomer

| IC50 (MRGPRX2 [1]) | IC50 (MRGPRX2 [2]) | relative potency of the separated isomer (MRGPRX2 [3]) | Structure (SMILES) |
| --- | --- | --- | --- |
| 0.1 to 100 nM | 0.1 to 100 nM |  | C[C@](CNc1cc(C(F)(F)F)nc2cc(C(F)(F)F)nn12)(c1ccc(F)cc1)C1CN(C(N)=O)C1 (single isomer, unassigned) [Example 6, 3-(1-((2,5-Bis(trifluoromethyl)pyrazolo[1,5-a]pyrimidin-7-yl)amino)-2-(4-fluorophenyl)propan-2-yl)azetidine-1-carboxamide] |
| 0.1 to 100 nM | 0.1 to 100 nM | more potent | CC(CNc1cc(C(F)(F)F)nc2cc(C(F)(F)F)nn12)(c1ccc(F)cc1)C1CCN(C(=O)NCCO)C1 (single isomer, unassigned) [Example 16, 3-(1-((2,5-Bis(trifluoromethyl)pyrazolo[1,5-a]pyrimidin-7-yl)amino)-2-(4-fluorophenyl)propan-2-yl)-N-(2-hydroxyethyl)pyrrolidine-1-carboxamide] |
| 0.1 to 100 nM | 0.1 to 100 nM |  | NC(=O)N1CCC(C(CO)(CNc2cc(C(F)(F)F)nc3cc(C(F)(F)F)nn23)c2ccc(F)cc2)C1 (single isomer, unassigned) [Example 18, 3-(1-((2,5-Bis(trifluoromethyl)pyrazolo[1,5-a]pyrimidin-7-yl)amino)-2-(4-fluorophenyl)-3-hydroxypropan-2-yl)pyrrolidine-1-carboxamide] |
| 0.1 to 100 nM |  | more potent | NC(=O)N1CCC(C(CNc2cc(C(F)(F)F)nc3cc(C(F)(F)F)nn23)c2ccc(F)cc2)C1 (single isomer, unassigned) [Example 20, 3-(2-((2,5-Bis(trifluoromethyl)pyrazolo[1,5-a]pyrimidin-7-yl)amino)-1-(4-fluorophenyl)ethyl)pyrrolidine-1-carboxamide] |

More lines, now with the values behind:

| Structure (SMILES) | IC50 (MRGPRX2 [1]) | IC50 (MRGPRX2 [2]) | relative potency of the separated isomer (MRGPRX2 [3]) |
| --- | --- | --- | --- |
| O=C1NC2(CCO1)CN(C(CNc1cc(C(F)(F)F)nc3cc(C(F)(F)F)nn13)c1ccc(F)cc1)C2 (single isomer, unassigned) [Example 25, 2-(2-((2,5-Bis(trifluoromethyl)pyrazolo[1,5-a]pyrimidin-7-yl)amino)-1-(4-fluorophenyl)ethyl)-7-oxa-2,5-diazaspiro[3.5]nonan-6-one] | 0.1 to 100 nM |  | more potent |
| [2H]C([2H])([2H])NC(=O)C1CN(C(CNc2cc(C(F)(F)F)nc3cc(C(F)(F)F)nn23)c2ccc(F)cc2)C1 (single isomer, unassigned) [Example 26, 1-(2-((2,5-Bis(trifluoromethyl)pyrazolo[1,5-a]pyrimidin-7-yl)amino)-1-(4-fluorophenyl)ethyl)-N-(methyl-d3)azetidine-3-carboxamide] | 0.1 to 100 nM |  | more potent |
| CC1(O)CN(C(CNc2cc(C(F)(F)F)nc3cc(C(F)(F)F)nn23)c2ccc(F)cc2)C1 (single isomer, unassigned) [Example 35, 1-(2-((2,5-Bis(trifluoromethyl)pyrazolo[1,5-a]pyrimidin-7-yl)amino)-1-(4-fluorophenyl)ethyl)-3-methylazetidin-3-ol] | 0.1 to 100 nM |  | active |
| O=C1CC2(CN1)CN(C(CNc1cc(C(F)(F)F)nc3cc(C(F)(F)F)nn13)c1ccc(F)cc1)C2 (single isomer, unassigned) [Example 36, 2-(2-((2,5-Bis(trifluoromethyl)pyrazolo[1,5-a]pyrimidin-7-yl)amino)-1-(4-fluorophenyl)ethyl)-2,6-diazaspiro[3.4]octan-7-one] | 0.1 to 100 nM |  | active |
| O=C1NCC2(CN(C(CNc3cc(C(F)(F)F)nc4cc(C(F)(F)F)nn34)c3ccc(F)cc3)C2)N1 (single isomer, unassigned) [Example 37, 2-(2-((2,5-Bis(trifluoromethyl)pyrazolo[1,5-a]pyrimidin-7-yl)amino)-1-(4-fluorophenyl)ethyl)-2,5,7-triazaspiro[3.4]octan-6-one] | 0.1 to 100 nM |  | active |
